From paper PMC9434784, “Synthesis and In Vitro Evaluation of a Set of 6-Deoxy-6-thio-carboranyl D-Glucoconjugates Shed Light on the Substrate Specificity of the GLUT1 Transporter” (ACS Omega, 2022)
Where two headings read alike, the source gives them in different places.

What was measured:
CAL 27 cell line = test: Cellular uptake (boron delivery capacity) by ICP-MS boron quantification; format: cell-based, human; settings: for behaviour at GLUT1 inferred from affinity and uptake profiles: CAL 27; for Vmax (boron uptake, Michaelis–Menten) / Km: 10–400 μM; for Km: read-out: Km (boron uptake, Michaelis–Menten)
Protocol: The uptake studies were performed according to our recently reported protocol.[13],[14] […] This, however, is not a concern, as the cell-killing effect caused by the thermal neutron beam in actual BNCT treatments has a destructive radius reminiscent to the diameter of a single cell (5–9 μm in biological tissue).[46] In the uptake studies, the concentration range 10–400 μM was screened. The incubation times 5, 30, and 120 min were chosen due the optimal performance of [^14C]-D-glucose under these conditions. Since inductively-coupled plasma mass spectrometry (ICP-MS) is somewhat insensitive when it comes to quantification of the boron content, thoroughly washed cells from four wells were combined and digested before being subjected to the analysis. […] However, we noticed that the Km values were consistently higher with the S-linked carboranyl species compared to the O-linked carboranylmethyl species.[14] The higher Km value may imply that there are additional transport mechanisms involved in the uptake of the S-series delivery agents. More work is needed to ascertain these factors. Regardless, the different Km values may likewise indicate that a greater concentration, which may no longer be clinically relevant, would be required for the S-series species to reach Vmax.
The cells were first pre-incubated. The substrates were then added in different concentration (10–400 μM in 250 μL of HBSS) and incubation was continued for 5, 30, and 120 min at room temperature. Ice-cold buffer was used to quench the reaction at the set time points. Washing and lysis was carried out as mentioned above. A combined sample was prepared in an Eppendorf tube by addition of cell lysate from four wells. The combined sample was centrifuged at +4 °C. From the supernatant of every sample, 800 μL was taken and digested in 1.0 mL of HNO3 (TraceMetal grade, Fisher Chemical) for 24 h. Milli-Q water (USF Elga Purelab Ultra) was added until the sample volume was 10 mL, and the boron contents were assessed in triplicates by ICP-MS. More details on the ICP method can be found in our earlier work.[13],[14] PerkinElmer Syngistix Data Analysis Software was used for data analysis and GraphPad Prism v.5.03 software (GraphPad Software, San Diego, Ca, USA) for statistical analysis.

GLUT1 = target: T1, GLUT1 (Homo sapiens, UniProt P11166); test: GLUT1 affinity cis-inhibition assay against [14C]-D-glucose in CAL 27 cells; format: cell-based; settings: competition with 1.8 μM [14C]-D-glucose, 5 min, room temperature, 0.1–1800 μM
T1 construct: host or cells: CAL 27 human squamous carcinoma cells
T1 sequence (P11166 1-492): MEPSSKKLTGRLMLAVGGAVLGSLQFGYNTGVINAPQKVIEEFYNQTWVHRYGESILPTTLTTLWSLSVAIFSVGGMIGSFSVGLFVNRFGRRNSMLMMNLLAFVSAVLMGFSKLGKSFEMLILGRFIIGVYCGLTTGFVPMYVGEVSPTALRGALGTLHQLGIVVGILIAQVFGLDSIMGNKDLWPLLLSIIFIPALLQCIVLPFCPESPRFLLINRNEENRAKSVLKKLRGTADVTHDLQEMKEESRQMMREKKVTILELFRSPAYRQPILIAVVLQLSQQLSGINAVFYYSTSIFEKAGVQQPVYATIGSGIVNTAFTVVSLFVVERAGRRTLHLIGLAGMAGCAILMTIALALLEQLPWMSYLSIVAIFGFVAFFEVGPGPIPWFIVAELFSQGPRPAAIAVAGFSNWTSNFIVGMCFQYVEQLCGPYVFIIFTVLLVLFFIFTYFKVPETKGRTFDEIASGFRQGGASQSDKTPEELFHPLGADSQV
Source text: From the drug development perspective, it is central to understand the molecular interactions between the ligand and the transporter. For example, in a BNCT context, the selectivity and success of the treatments are directly related to the preferential uptake of boron-10 enriched delivery agents by cancer cells. In our case, the GLUT1 transporter, which is overexpressed on various cancers, is responsible for the uptake process. The clinical validity and therapeutic utility of the approach stem from the “Warburg effect”.[7],[8] Cancer cells have an impaired D-glucose metabolism while simultaneously displaying a high proliferation rate and energy demand. Together, these factors contribute to an increased D-glucose uptake in cancer cells compared to healthy cells and offer a basis for pursuing a GLUT1-targeting strategy in BNCT. Based on the available tumor imaging data obtained through the use of FDG,[38] head and neck cancers represent a promising target for our approach. Therefore, we employed the human squamous carcinoma cell line CAL 27 as a suitable model for the in vitro assessment of GLUT1-targeting delivery agents. In addition to being a relevant head and neck cancer cell line of human origin, the GLUT1-transporter has been indicated to play a key role in the aberrant growth of CAL 27 cells.[39],[40] In our previous work, we validated the GLUT1-function, quantified the GLUT1-expression, and developed a cis-inhibition assay for determining the relative affinities of GLUT1-targeting delivery agents to GLUT1 in the CAL 27 cell line.[13],[14] To allow comparison of the results of the present study to our earlier ones, we used the same protocols herein. The fully deprotected glucoconjugates 1–4 were subjected to the cis-inhibition assay, i.e., they were forced to compete for the transporter against radiolabeled [^14C]-D-glucose in order to assess their targeting capabilities from a functional point of view. A high GLUT1 affinity, i.e., a low IC50 value, is characteristic of delivery agents that are able to target the transporter in the presence of the natural substrate D-glucose in a biological milieu. […] Large differences in the IC50 values were thus noted. […] These two delivery agents display acceptable GLUT1-targeting capabilities. […] While the trend is clear, the results are surprising. The question that arises is as follows: which underlying factors contribute to these notable deviations uncovered through the experimental cis-inhibition assay?
The GLUT1 affinity assay was performed according to our previously developed protocol.[13],[14] […] Liquid scintillation counter (MicroBeta^2 counter, PerkinElmer, Waltham, MA, USA) was used to assess the radioactivity, and the IC50 values were determined by nonlinear regression analysis.

IC50 (GLUT1) | Compound | behaviour at GLUT1 inferred from affinity and uptake profiles (CAL 27 cell line) | Vmax (boron uptake, Michaelis–Menten) (CAL 27 cell line; CAL 27, 5 min incubation) | Km (CAL 27 cell line; CAL 27, 5 min incubation) | Vmax (boron uptake, Michaelis–Menten) (CAL 27 cell line; CAL 27, 30 min incubation) | Km (CAL 27 cell line; CAL 27, 30 min incubation) | boron delivery capacity compared to the other delivery agents screened (BPA, BSH) (CAL 27 cell line; CAL 27, 10–400 μM, 5, 30 and 120 min) | Vmax (boron uptake, Michaelis–Menten) (CAL 27 cell line; CAL 27, 120 min incubation) | Km (CAL 27 cell line; CAL 27, 120 min incubation)
127 µM | 6-Deoxy-6-thio-(1,2-dicarba-closo-dodecaboran-1-yl)-D-glucopyranose [Compound 1] | seems to act as a GLUT1-antagonist | 1.34 μg B/mg protein | 1830 µM | 0.83 μg B/mg protein | 556 µM |  |  | 
982 µM | 6-Deoxy-6-thio-(1,2-dicarba-closo-dodecaboran-9-yl)-D-glucopyranose [Compound 3] |  | 0.03 μg B/mg protein | 110 µM |  |  |  |  | 
121 µM | 6-Deoxy-6-thio-(1,7-dicarba-closo-dodecaboran-1-yl)-D-glucopyranose [Compound 2] | enters the cells through the transporter at an acceptable rate | 6.60 μg B/mg protein | 1810 µM | 1.80 μg B/mg protein | 237 µM | fivefold higher delivery capacity | 2.19 μg B/mg protein | 208 µM

Compound | IC50 (GLUT1) | behaviour at GLUT1 inferred from affinity and uptake profiles (CAL 27 cell line) | Vmax (boron uptake, Michaelis–Menten) (CAL 27 cell line; CAL 27, 5 min incubation) | Km (CAL 27 cell line; CAL 27, 5 min incubation) | Vmax (boron uptake, Michaelis–Menten) (CAL 27 cell line; CAL 27, 30 min incubation) | Km (CAL 27 cell line; CAL 27, 30 min incubation) | boron delivery capacity compared to the other delivery agents screened (BPA, BSH) (CAL 27 cell line; CAL 27, 10–400 μM, 5, 30 and 120 min) | Vmax (boron uptake, Michaelis–Menten) (CAL 27 cell line; CAL 27, 120 min incubation) | Km (CAL 27 cell line; CAL 27, 120 min incubation)
OC[C@H]1OC(O)[C@H](O)[C@@H](O)[C@@H]1O (stereo partly drawn) [D-glucose, reference compound] | > 1000 µM |  |  |  |  |  |  |  | 
